Each structure is given as a SMILES string.

For test [1], the system named is MDA-MB-231 cells co-cultured with CAFs. The test is described as follows: Breast-cancer-on-chip co-culture with cancer-associated fibroblasts, STAMP apoptosis rate. The test is classed as cell-based. The settings on record: 1 µM doxorubicin, 6:1 cancer:CAF ratio, TLAG = 4 h, 68 hrs. Here is the method: MDA-MB-231 cancer cells were co-cultured on-chip +/- cancer-associated fibroblasts (CAFs) and +/- doxorubicin (1 µM) treatment. Final CAF:cancer ratio was 1:6. […] The data are the means of 3 measurements coming from 3 videos of the same experiment (+/- SEM). The data illustrating the MDA-MB-231 without CAFs conditions come from the same videos analyzed for FIG. 4 but with different time-interval resolution.
Cell cultures The MDA-MB-231 cell line, from triple negative breast cancer, was cultured in high-glucose DMEM (GE Healthcare, #SH30081.01) supplemented with 10% fetal bovine serum (Biosera), 1% Penicillin/Streptomycin (Gibco), 1% glutamine (Gibco). The IGR-Pub lung adenocarcinoma cells and the autologous T cells P62 were harvested from the same patient in Institut Gustave Roussy. […]
Having established that the STAMP method accurately monitors cancer death within co-cultures of cancer and T cells, we moved to bi-cultures of cancer cells and cancer-associated fibroblasts (CAFs). […] Since it is well established that CAFs contribute to chemoresistance in various cancer types, by co-culturing primary breast CAFs with the breast cancer MDA-MB-231 cells, we assessed the capacity of ToC to recapitulate the CAF impact on doxorubicin resistance ex vivo.

The test system of the next test is MDA-MB-231 cells. Briefly: Breast-cancer-on-chip culture, time-lapse imaging analysed with STAMP (apoptosis rate, Pdeath). The test is classed as cell-based. The settings on record: 1 µM doxorubicin. Here is the method: Cell cultures The MDA-MB-231 cell line, from triple negative breast cancer, was cultured in high-glucose DMEM (GE Healthcare, #SH30081.01) supplemented with 10% fetal bovine serum (Biosera), 1% Penicillin/Streptomycin (Gibco), 1% glutamine (Gibco). The IGR-Pub lung adenocarcinoma cells and the autologous T cells P62 were harvested from the same patient in Institut Gustave Roussy. The IGR-Pub cells were cultured in DMEM F12 (GIBCO) supplemented with 10% fetal bovine serum (Biosera), 1% of Ultroser G (Pall), 1% of Sodium Pyruvate (Gibco) and 1% Penicillin/Streptomycin (GIBCO). P62 T cells were cultured in RPMI-1640 (GE Healthcare) supplemented with 10% human AB serum (Institut Jacques Boy, Reims, France), rIL-2 (20 U/ml, Gibco), 1% of Sodium Pyruvate (Gibco) and 0.1% Penicillin/Streptomycin (Gibco). Primary cancer-associated fibroblasts (CAFs) were isolated and cultured as previously reported. All cell lines were periodically tested to exclude mycoplasma contamination using a qPCR-based method (VenorGem Classic, BioValley, #11-1250). The MDA-MB-231 cell line was authenticated by SRT profiling (GenePrint 10 system, Promega, #B9510). Doxorubicin was purchased from Teva pharmaceuticals (200 mg/ml).
Tumor-on-chip preparation The microfluidic devices were purchased from AIM-Biotech (#DAX-1). Cells were seeded in the central chamber of the DAX-1 chips embedded in a matrix composed of type I rat tail collagen (Thermofisher, #A1048301) at the final concentration of 2.3 mg/ml. Cancer cells were seeded in the gel at a final density of 2×10^6 cells/ml. Autologous T cells were added at final densities of 0.2×10^6 to 2×10^6 cells/ml in order to obtain different ratios (from 10:1 to 1:1) between cancer and T cells. Primary CAFs were added at cancer:CAF 6:1 ratio. The microfluidic devices were incubated for 30 min at 37° C. in a humidified chamber to allow the polymerization of the collagen solution; afterwards, 120 µl of culture medium were added in each lateral chamber. MDA-MB-231 cells in chip were cultured in the same medium used for dish 2D culture, whereas the IGR-Pub/P62 cells co-cultures were cultured in T-cell medium, supplemented with rIL-2 (10 U/ml, GIBCO, #PHC0027). After the addition of the medium, the microfluidic devices were kept for 1 hour in the incubator before transfer to the incubating chamber of the microscope for imaging.
Cell staining Cancer cells were labeled with CellTrace™ Yellow (Thermofisher, #C34567) before seeding in the gel, for the detection in the so-called “red channel” of fluorescence. […] CellTrace™ exists in 4 colours so up to 5 different cell populations could potentially be analysed separately (4 colours + unstained) by staining the cells prior to mixing. […]

Regarding `COc1cccc2c1C(=O)c1c(O)c3c(c(O)c1C2=O)C[C@@](O)(C(=O)CO)C[C@@H]3O[C@H]1C[C@H](N)[C@H](O)[C@H](C)O1` [doxorubicin], the “doxorubicin-dependent apoptotic increase in presence of CAFs” value in test [1] is “completely impaired”. In addition, the “latency in the response to doxorubicin” value with MDA-MB-231 cells (3D on-chip (FIG. 4C, right)) came to 20 h. Moreover, the “death rate during the first 20 hrs of treatment” value in the test with MDA-MB-231 cells (TLAG = 10 hrs, 3D on-chip) is given as “remained at basal level”. In addition, the “death rate (apoptosis rate) in 10 hrs-time-intervals” value with MDA-MB-231 cells (after 20 hrs of exposure, TLAG = 10 hrs, 3D on-chip, 72 h) is “more than 10%”. The “Potential of death induction (Pdeath) increase” value in the test with MDA-MB-231 cells (during the first 2 days, remains high during the 3rd day, T̃ = 16 hr) is listed as 3-4 fold.

These data come from patent US20230289968A1, “AUTOMATED ANALYSIS OF CELL CULTURES” (Hoffmann-La Roche Inc., priority 2020, published 2023).
